Consider 25 compounds from publication PMC5112578, “Zika antiviral chemotherapy: identification of drugs and promising starting points for drug discovery from an FDA-approved library” (F1000Research, 2016).

Data set [1] has as its system Zika virus (ZIKV). In words: ZIKV high content screening assay (infection ratio by immunofluorescence in Huh7). As to conditions: for activity: in our assay, library screened at 20 µM; for activity / Max. Activity (% of infection inhibition): Huh7, ZIKV, 72 h; for SI: SI = CC50/EC50; for S.I. (CC 50/EC 50) / Max. Activity (% of infection inhibition): Table 2; for S.I. (CC 50/EC 50): SI = CC50/EC50, Huh7; for Max. Activity (% of infection inhibition): dose-response.

A further data set relates to Huh7 cells. In words: Cell toxicity / cell ratio in the ZIKV high content assay. As to conditions: for CC50: Table S2, 50% reduction in cell viability vs infected IFNα2A treated cells, 72 h; for toxicity: in our assay, library screened at 20 µM, Huh7, 72 h.
The conditions of data set [2]: Table 2; no reference given; cited from earlier work.
The test system of data set [3] is Zika virus (ZIKV).
The conditions of data set [4]: in humans; no reference given; cited from earlier work.
The mark [5] stands for this setting: Table S2, 9 point DRC from 50 µM, Huh7, ZIKV MOI 0.5, 72 h.

Each structure is given as a SMILES string. Where a name gives a salt, the structure may show the parent alone. Read-outs that look alike come from different tables or passages of the source. Numbered stars: 1 amine (or outer) side, 2 acyl side, 3 side chain; on linkers, the order of the positions; unused ones are H or OH. Bridge positions count the residues as written; N and C are the ends. Square brackets hold non-standard residues; d marks the D form. Peptide text beside a SMILES is read from it. I, II: the chains in the order shown. Actinocin(9to1) = Cc1c2oc3c(C)ccc(C(=O)[*:1])c3nc-2c(C(=O)[*:2])c(N)c1=O; NMeV = CN[C@H](C(=O)O)C(C)C; Sar = CNCC(=O)O Some results are limits rather than exact numbers.

For the compound `CC(C)/N=c1\cc2n(-c3ccc(Cl)cc3)c3ccccc3nc-2cc1Nc1ccc(Cl)cc1` [Clofazimine], in the data set with Zika virus (ZIKV) [1], the activity entry is given as “lower than 50%”.

With `CN[C@H]1CC[C@@H](c2ccc(Cl)c(Cl)c2)c2ccccc21` [Sertraline-HCl], the activity entry in the data set with Zika virus (ZIKV) [1] is given as “lower than 50%”.

Regarding `S=c1[nH]cnc2nc[nH]c12` [Mercaptopurine], in the data set with Zika virus (ZIKV) [1], the activity entry is “lower than 50%”.

Usually EC50 stands for the concentration at which the effect is half-maximal. Broadly, the CC50 is the concentration at which the toxic effect on the cells reaches its halfway point. For `CN1C2CCC1CC(OC(c1ccccc1)c1ccccc1)C2.CS(=O)(=O)O` (centres unmarked) [SAM002548938], in the data set on Zika virus (ZIKV) [1] (setting [5]), the EC50 is 21.3 ± 10 µM. For the same compound, in the data set with Zika virus (ZIKV) [1] (Table S2), the SI came to 1.47. Also, the half-maximal cytotoxic concentration (CC50) with Huh7 cells was 31.3 ± 15.3 µM.

`CC(CN1c2ccccc2Sc2ccccc21)N(C)C.Cl` (centres unmarked) [SAM002264636]: the EC50 in the data set on Zika virus (ZIKV) [1] (setting [5]) came out at 19.7 ± 4.5 µM. Besides, the SI with Zika virus (ZIKV) [1] (Table S2) worked out at 1.44. Further, the CC50 in the data set on Huh7 cells was determined as 28.3 ± 17.6 µM.

`CC[C@H](C)C(=O)O[C@H]1C[C@@H](C)C=C2C=C[C@H](C)[C@H](CC[C@@H]3C[C@@H](O)CC(=O)O3)[C@H]21` [Lovastatin]: in the data set on Zika virus (ZIKV) [1], the “S.I. (CC 50/EC 50)” value is on record as above 2.5 and the “Max. Activity (% of infection inhibition)” value came out at 60.7%. The EC50 with Zika virus (ZIKV) [1] (Zika virus, Huh-7, 72 h) was 20.7 ± 8.6 µM.

In the case of `COCCCC/C(=N\OCCN)c1ccc(C(F)(F)F)cc1.O=C(O)/C=C\C(=O)O` [SAM001246977], the EC50 in the data set on Zika virus (ZIKV) [1] (setting [5]) is 17 ± 3.6 µM. The SI with Zika virus (ZIKV) [1] (Table S2) was 1.43. The half-maximal cytotoxic concentration (CC50) with Huh7 cells turned out to be 24.3 ± 3.1 µM.

`COC(=O)Nc1nc2ccc(C(=O)c3ccccc3)cc2[nH]1` [Mebendazole]: the toxicity result with Huh7 cells is “higher than 50%”.

For the compound `O=c1[nH]cc(F)c(=O)[nH]1` [5-Fluorouracil], the “Max. Activity (% of infection inhibition)” value in the data set on Zika virus (ZIKV) [1] was 57%. For the same compound, the EC50 in the data set with Zika virus (ZIKV) [1] (Zika virus, Huh-7, 72 h) was found to be 14.3 ± 8.6 µM. Besides, in data set [2], the “Water Solubility” value is 12500 µg/mL. Besides, the “S.I. (CC 50/EC 50)” value in the data set on Zika virus (ZIKV) [3] is on record as above 2.5.

For `Clc1ccc2c(c1)C(N1CCNCC1)=Nc1ccccc1O2` [SAM002564189], the EC50 in the data set on Zika virus (ZIKV) [1] (setting [5]) came to 19.3 ± 5.5 µM. The SI in the data set on Zika virus (ZIKV) [1] (Table S2) was 0.6. Moreover, the half-maximal cytotoxic concentration (CC50) in the data set on Huh7 cells was 11.7 ± 11 µM.

In the case of `CN1CCN(CCCN2c3ccccc3Sc3ccc(Cl)cc32)CC1.O=C(O)/C=C\C(=O)O.O=C(O)/C=C\C(=O)O` [SAM001247054], in the data set on Zika virus (ZIKV) [1] (setting [5]), the EC50 worked out at 10.3 ± 3.1 µM. Besides, in the data set with Zika virus (ZIKV) [1] (Table S2), the SI worked out at 0.87. Besides, the CC50 in the data set with Huh7 cells amounted to 9 ± 4.4 µM.

Consider `C[C@H]1O[C@@H](O[C@H]2[C@@H](O)C[C@H](O[C@H]3[C@@H](O)C[C@H](O[C@H]4CC[C@@]5(C)[C@H](CC[C@@H]6[C@@H]5C[C@@H](O)[C@]5(C)[C@@H](C7=CC(=O)OC7)CC[C@]65O)C4)O[C@@H]3C)O[C@@H]2C)C[C@H](O)[C@@H]1O` [Digoxin], for which the toxicity result in the data set on Huh7 cells is given as “higher than 50%”.

Consider `Cc1c2oc3c(C)ccc(C(=O)N[C@@H]4C(=O)N[C@H](C(C)C)C(=O)N5CCC[C@H]5C(=O)N(C)CC(=O)N(C)[C@@H](C(C)C)C(=O)O[C@@H]4C)c3nc-2c(C(=O)N[C@@H]2C(=O)N[C@H](C(C)C)C(=O)N3CCC[C@H]3C(=O)N(C)CC(=O)N(C)[C@@H](C(C)C)C(=O)O[C@@H]2C)c(N)c1=O` [Dactinomycin] (I: T[dV]P[Sar][NMeV] / II: T[dV]P[Sar][NMeV]; ester I:1-I:C, II:1-II:C; linker I:N-II:N via Actinocin(9to1)), for which, in the data set with Huh7 cells, the toxicity result was “higher than 50%”.

As to `Cc1ccc(NC(=O)c2ccc(CN3CCN(C)CC3)cc2)cc1Nc1nccc(-c2cccnc2)n1` [SAM001246622], the EC50 in the data set with Zika virus (ZIKV) [1] (setting [5]) is 13.3 ± 5.8 µM.

Take `OC(c1cc(C(F)(F)F)nc2c(C(F)(F)F)cccc12)C1CCCCN1` (centres unmarked) [Mefloquine]: the toxicity result in the data set on Huh7 cells is on record as “higher than 50%”.

In the case of `Clc1ccc2c(c1)CCc1cccnc1C2=C1CCNCC1` [SAM001246545], the CC50 with Huh7 cells was found to be 20.7 ± 4.1 µM.

The bioavailability is the share of a dose that reaches the circulation, judged against a reference dose that is usually intravenous. Take `O=C1c2cccc3c2[C@H](CCC3)CN1[C@@H]1CN2CCC1CC2` [Palonosetron]: in the data set on Zika virus (ZIKV) [1], the “Max. Activity (% of infection inhibition)” value came out at 97.7%. In addition, the EC50 in the data set with Zika virus (ZIKV) [1] (Zika virus, Huh-7, 72 h) turned out to be 16.3 ± 7.7 µM. For the same compound, in data set [4], the bioavailability is 97%. The “Water Solubility (mg/mL)” value in data set [2] is given as “Very high”. Besides, in the data set with Zika virus (ZIKV) [3], the “S.I. (CC 50/EC 50)” value is listed as above 3.06.

Take `CO[C@@H]1[C@@H](O[C@@H]2O[C@H](C)[C@@H](O[C@H]3C[C@@](C)(O)[C@@H](OC(=O)CC(C)C)[C@H](C)O3)[C@H](N(C)C)[C@H]2O)[C@@H](CC=O)C[C@@H](C)[C@@H](O)/C=C/C=C/C[C@@H](C)OC(=O)C[C@H]1O` [Kitasamycin]: in the data set with Zika virus (ZIKV) [1], the “S.I. (CC 50/EC 50)” value was above 1.2 and the “Max. Activity (% of infection inhibition)” value is recorded as 69.1%. The EC50 in the data set with Zika virus (ZIKV) [1] (Zika virus, Huh-7, 72 h) worked out at 41.7 ± 10.1 µM. Moreover, the “Water Solubility” value in data set [2] is 50 µg/mL.

As to `CC(C)c1ccc2c(c1)c(SC(C)(C)C)c(CC(C)(C)C(=O)O)n2Cc1ccc(Cl)cc1` [SAM001247075], the EC50 in the data set on Zika virus (ZIKV) [1] (setting [5]) came to 12 ± 1.7 µM. Besides, the SI in the data set with Zika virus (ZIKV) [1] (Table S2) was determined as 2.8. The CC50 with Huh7 cells came to 33.7 ± 10.8 µM.

Consider `Clc1ccccc1C(c1ccccc1)(c1ccccc1)n1ccnc1` [SAM001247056], for which the EC50 in the data set on Zika virus (ZIKV) [1] (setting [5]) came out at 14.3 ± 3.5 µM. Besides, in the data set with Zika virus (ZIKV) [1] (Table S2), the SI stood at 0.6. For the same compound, the CC50 with Huh7 cells was 8.7 ± 1.2 µM.

For the compound `COc1c2occc2cc2ccc(=O)oc12` [Methoxsalen], the activity entry with Zika virus (ZIKV) [1] is listed as “lower than 50%”.

As to `N=C(NCc1ccc(Cl)cc1)SCCCc1c[nH]cn1` [SAM001247107], the 50% effective concentration (EC50) in the data set on Zika virus (ZIKV) [1] (setting [5]) turned out to be 14 µM. Besides, the SI with Zika virus (ZIKV) [1] (Table S2) was 1.38. Moreover, in the data set with Huh7 cells, the cytotoxic concentration (CC50) worked out at 19.3 ± 9.7 µM.

For `Cn1cnc([N+](=O)[O-])c1Sc1ncnc2nc[nH]c12` [Azathioprine], in the data set with Huh7 cells, the toxicity entry is listed as “higher than 50%”.

For `Oc1cc2c(cc1O)[C@H]1c3ccccc3CN[C@@H]1CC2` [SAM001247083], the EC50 in the data set with Zika virus (ZIKV) [1] (setting [5]) amounted to 21.5 ± 0.7 µM. Also, in the data set with Huh7 cells, the CC50 came out at 16.5 µM.

For the compound `O=c1cnn([C@@H]2O[C@H](CO)[C@@H](O)[C@H]2O)c(=O)[nH]1` [6-Azauridine], the “Max. Activity (% of infection inhibition)” value in the data set on Zika virus (ZIKV) [1] is listed as 88.3%. Besides, the EC50 in the data set on Zika virus (ZIKV) [1] (Zika virus, Huh-7, 72 h) came to 2.3 ± 0.1 µM. Further, the “Water Solubility (mg/mL)” value in data set [2] is “Very high”.
